Measurements as given in patent publication US20140113898A1, “BISARYLSULFONE AND DIALKYLARYLSULFONE COMPOUNDS AS CALCIUM CHANNEL BLOCKERS” (Zalicus Pharmaceuticals Ltd., priority 2010, published 2014).
Read-outs that look alike come from different tables or passages of the source.

Key:
CaV2.2 = target: T1, CaV2.2 (Homo sapiens, UniProt Q00975); assay: High-throughput CaV2.2/Kir2.3 FLIPR fluorescent assay; format: cell-based; conditions: Fluo-4 FLIPR, closed or inactivated state not stated, read-out: FLIPR data CaV2.2
T1 construct: expressed in transfected cells; host or cells: unnamed doxycycline-inducible cell line
Procedure, shortened: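 Doxycycline-induced cells moved to 29 °C on assay day and were loaded with 4.4 μM Fluo-4. They were held in 2 mM KCl (closed state) or 12.5 mM KCl (inactivated state) buffer, pH 7.4, then depolarized with 130 mM KCl. Fluorescence was read 3 min on FLIPR, and IC50 was obtained from logistic fits.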

CaV3.2 = target: T2, CaV3.2 (Homo sapiens, UniProt O95180); assay: High-throughput CaV3.2/Kir2.3 T-type FLIPR fluorescent assay; format: cell-based; conditions: Fluo-4 FLIPR, closed or inactivated state not stated
T2 construct: expressed in transfected cells; host or cells: unnamed doxycycline-inducible cell line
Procedure: Cells were plated in 384-well, clear-bottom, black-walled, poly-D-lysine coated plates (Becton Dickinson, Franklin Lake, N.J.) 2 days prior to use in the FLIPR assay. 100 µL of cells (1.2×10^6 cell/mL) containing doxycyline (Sigma-Aldrich, 1.5 μg/mL; to induce channel expression) were added to each well using a Multidrop (Thermo Scientific, Waltham, Mass.) and were maintained in 5% CO2 incubator at 37° C. On the morning of the assay, cells were transferred to a 5% CO2 incubator at 29° C.
Cells were washed with a wash buffer containing (in mM): 118 NaCl, 18.4 HEPES, 11.7 D-glucose, 2 CaCl2, 0.5 MgSO4, 4.7 KCl, and 1.2 KH2PO4, with the pH adjusted to 7.2 with
NaOH. 4.4 μM of the fluorescent indicator dye Fluo-4 (Invitrogen) prepared in pluronic acid (Sigma-Aldrich) was loaded into the wells and incubated for 45 minutes at 29° C. in 5% CO2. Cells were then rinsed with either a 2 mM KCl closed-state buffer (in mM: 138.5 NaCl, 10 HEPES, 10 D-glucose, 1 CaCl2, and 2 KCl, with the pH adjusted to 7.4 with NaOH) when performing the closed-state assay or 7.6 mM KCl inactivated-state buffer (in mM: 130.9 NaCl, 10 HEPES, 10 D-glucose, 1 CaCl2, and 7.6 mM KCl, with the pH adjusted to 7.4 with NaOH) when performing the inactivated-state assay. Concentration-dependent response curves were generated from 5 mM stock solutions prepared in DMSO (Sigma-Aldrich), diluted in either the 2 mM KCl buffer or 7.6 mM KCl buffer, and incubated for 20 minutes at 29° C. in 5% CO2. Calcium entry was evoked with an addition of either 12 mM KCl stimulation buffer (in mM: 128.5 NaCl, 10 HEPES, 10 D-glucose, 1 CaCl2, and 12 KCl, with the pH adjusted to 7.4 with NaOH) or 14.5 mM KCl stimulation buffer (in mM: 126 NaCl, 10 HEPES, 10 D-glucose, 1 CaCl2, and 14.5 KCl, with the pH adjusted to 7.4 with NaOH) for the closed-state or inactivated-state assay respectively. A change in the Fluo-4 fluorescence signal was assessed using FLIPR^TETRA™ instrument (Molecular Devices, Sunnyvale, Calif.) for 3 minutes following the elevation of extracellular KCl using an illumination wavelength of 470-495 nm with emissions recorded at 515-575 nm.
Concentration-dependent response curves were obtained by comparing the fluorescence signal in the presence of compound and fitted with a logistic function (1) to obtain the concentration that inhibited 50% (IC50) of the RLU signal using OriginPro v.7.5 software (OriginLab, Northampton, Mass.).
To assess the quality of the FLIPR assays the Z-factor (2) was used to quantify the suitability of the assay conditions using the following equation: […]
Data are expressed as mean and standard deviation (SD).

T1 sequence (Q00975 whole entry): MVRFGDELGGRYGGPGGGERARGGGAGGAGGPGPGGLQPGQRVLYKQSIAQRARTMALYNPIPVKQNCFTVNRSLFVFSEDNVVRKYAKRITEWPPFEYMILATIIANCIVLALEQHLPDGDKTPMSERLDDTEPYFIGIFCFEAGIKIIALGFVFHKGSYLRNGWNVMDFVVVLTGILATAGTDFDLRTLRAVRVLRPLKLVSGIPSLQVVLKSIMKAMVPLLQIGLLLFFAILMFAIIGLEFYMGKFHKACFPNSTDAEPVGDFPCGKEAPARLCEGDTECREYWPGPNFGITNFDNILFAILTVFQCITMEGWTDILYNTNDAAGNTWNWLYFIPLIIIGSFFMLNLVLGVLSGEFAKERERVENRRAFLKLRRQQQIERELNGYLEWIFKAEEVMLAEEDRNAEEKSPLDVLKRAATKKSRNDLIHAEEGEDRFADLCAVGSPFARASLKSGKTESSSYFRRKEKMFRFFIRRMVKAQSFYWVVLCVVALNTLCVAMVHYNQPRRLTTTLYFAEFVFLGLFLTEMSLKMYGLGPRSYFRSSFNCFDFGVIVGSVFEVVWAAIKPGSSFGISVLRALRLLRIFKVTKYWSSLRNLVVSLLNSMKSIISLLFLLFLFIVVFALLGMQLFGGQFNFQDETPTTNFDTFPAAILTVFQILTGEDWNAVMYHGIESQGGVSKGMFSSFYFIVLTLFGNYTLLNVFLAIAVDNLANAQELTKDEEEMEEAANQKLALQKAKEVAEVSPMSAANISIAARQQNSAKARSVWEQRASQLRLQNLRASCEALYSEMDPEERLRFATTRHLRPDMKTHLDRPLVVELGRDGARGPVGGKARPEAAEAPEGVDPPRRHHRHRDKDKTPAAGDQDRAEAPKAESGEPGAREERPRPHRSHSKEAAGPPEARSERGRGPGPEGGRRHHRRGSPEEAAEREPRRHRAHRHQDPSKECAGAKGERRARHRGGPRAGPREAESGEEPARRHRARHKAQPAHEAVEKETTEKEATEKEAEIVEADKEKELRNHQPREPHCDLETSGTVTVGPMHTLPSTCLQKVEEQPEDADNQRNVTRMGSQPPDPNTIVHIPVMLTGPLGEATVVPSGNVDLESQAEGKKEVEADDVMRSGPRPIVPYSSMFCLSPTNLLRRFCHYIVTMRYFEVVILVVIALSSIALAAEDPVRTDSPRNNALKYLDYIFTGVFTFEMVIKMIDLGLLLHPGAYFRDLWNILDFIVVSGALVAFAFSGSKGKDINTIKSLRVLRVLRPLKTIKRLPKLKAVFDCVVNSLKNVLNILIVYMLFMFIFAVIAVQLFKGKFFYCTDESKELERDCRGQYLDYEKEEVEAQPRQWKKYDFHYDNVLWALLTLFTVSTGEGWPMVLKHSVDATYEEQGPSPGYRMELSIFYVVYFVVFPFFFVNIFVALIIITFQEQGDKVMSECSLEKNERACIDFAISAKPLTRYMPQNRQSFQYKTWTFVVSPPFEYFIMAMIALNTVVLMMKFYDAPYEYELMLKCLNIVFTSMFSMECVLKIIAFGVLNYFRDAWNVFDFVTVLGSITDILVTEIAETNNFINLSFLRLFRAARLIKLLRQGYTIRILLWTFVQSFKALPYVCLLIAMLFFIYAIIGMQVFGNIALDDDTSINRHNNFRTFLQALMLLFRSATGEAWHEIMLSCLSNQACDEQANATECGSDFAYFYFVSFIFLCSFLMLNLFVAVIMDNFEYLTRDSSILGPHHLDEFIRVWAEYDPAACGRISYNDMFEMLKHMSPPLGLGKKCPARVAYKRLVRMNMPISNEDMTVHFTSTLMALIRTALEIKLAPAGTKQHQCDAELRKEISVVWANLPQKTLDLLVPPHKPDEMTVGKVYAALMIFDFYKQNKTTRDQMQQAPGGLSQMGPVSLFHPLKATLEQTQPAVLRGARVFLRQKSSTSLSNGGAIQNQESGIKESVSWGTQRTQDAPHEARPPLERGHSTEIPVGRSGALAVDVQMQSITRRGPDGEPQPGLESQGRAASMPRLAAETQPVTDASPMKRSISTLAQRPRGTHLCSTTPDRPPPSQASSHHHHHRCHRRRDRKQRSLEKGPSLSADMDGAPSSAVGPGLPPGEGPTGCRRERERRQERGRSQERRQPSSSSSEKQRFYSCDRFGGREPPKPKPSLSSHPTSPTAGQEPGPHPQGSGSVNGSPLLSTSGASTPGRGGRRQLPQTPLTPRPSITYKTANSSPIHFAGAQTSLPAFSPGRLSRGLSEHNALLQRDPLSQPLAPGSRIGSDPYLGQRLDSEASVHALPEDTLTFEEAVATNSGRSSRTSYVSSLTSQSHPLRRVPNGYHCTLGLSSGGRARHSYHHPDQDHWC
T1 sequence (P54284 whole entry partner): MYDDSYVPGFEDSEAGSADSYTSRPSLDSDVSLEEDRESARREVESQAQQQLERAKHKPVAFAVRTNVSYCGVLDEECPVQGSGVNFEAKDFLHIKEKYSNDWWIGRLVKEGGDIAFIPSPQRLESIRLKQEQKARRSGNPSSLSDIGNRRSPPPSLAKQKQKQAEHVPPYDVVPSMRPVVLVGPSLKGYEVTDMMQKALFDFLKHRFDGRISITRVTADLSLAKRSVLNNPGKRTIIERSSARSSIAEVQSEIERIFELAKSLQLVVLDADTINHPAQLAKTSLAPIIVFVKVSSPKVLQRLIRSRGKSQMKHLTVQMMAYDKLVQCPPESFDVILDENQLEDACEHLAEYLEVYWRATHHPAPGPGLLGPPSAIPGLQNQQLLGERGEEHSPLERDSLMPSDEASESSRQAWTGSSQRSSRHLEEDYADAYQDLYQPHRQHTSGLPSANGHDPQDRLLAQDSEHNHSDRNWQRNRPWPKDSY
T1 sequence (P54289 25-946 partner limits assumed): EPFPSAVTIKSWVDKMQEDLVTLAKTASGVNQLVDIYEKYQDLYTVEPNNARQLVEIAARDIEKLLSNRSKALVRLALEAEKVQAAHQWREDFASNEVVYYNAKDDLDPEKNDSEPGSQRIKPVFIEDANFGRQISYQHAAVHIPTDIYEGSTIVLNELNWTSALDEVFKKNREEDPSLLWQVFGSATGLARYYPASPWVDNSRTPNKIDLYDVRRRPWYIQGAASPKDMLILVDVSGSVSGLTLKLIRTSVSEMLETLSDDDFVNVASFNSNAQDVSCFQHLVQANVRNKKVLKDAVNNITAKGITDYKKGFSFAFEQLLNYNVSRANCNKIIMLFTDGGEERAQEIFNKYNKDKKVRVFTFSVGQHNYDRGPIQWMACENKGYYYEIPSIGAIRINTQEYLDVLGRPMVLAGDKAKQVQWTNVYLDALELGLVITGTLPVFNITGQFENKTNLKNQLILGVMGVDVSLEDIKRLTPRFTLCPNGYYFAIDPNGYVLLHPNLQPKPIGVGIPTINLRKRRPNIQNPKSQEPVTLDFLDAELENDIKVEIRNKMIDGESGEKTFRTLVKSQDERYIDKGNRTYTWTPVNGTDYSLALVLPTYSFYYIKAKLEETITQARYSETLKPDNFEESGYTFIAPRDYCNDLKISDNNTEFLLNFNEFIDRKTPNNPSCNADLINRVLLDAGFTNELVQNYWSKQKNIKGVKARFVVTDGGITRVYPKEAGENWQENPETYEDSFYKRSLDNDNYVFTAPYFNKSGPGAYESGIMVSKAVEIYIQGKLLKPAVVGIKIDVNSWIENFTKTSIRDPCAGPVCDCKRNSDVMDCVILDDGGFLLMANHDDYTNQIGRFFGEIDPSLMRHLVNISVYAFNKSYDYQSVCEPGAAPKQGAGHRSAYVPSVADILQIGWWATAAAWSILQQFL
T1 sequence (P54289 947-1103 partner limits assumed): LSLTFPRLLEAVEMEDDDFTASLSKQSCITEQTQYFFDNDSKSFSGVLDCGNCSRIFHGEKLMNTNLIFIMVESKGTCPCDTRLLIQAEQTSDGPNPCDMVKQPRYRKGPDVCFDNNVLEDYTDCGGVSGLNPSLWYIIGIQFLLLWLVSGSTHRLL

SMILES | IC50 (CaV2.2; Table 5) [nM] | IC50 (CaV3.2; Table 5) [nM] | IC50 (CaV2.2; Table 4) [nM] | IC50 (CaV3.2; Table 4) [nM]
COc1ccc(S(=O)(=O)N2CCOCC2)cc1C(=O)NCC(C)(C)S(=O)(=O)c1cccc(C(F)(F)F)c1 [Compound 166, 2-methoxy-N-(2-methyl-2-((3-(trifluoromethyl)phenyl)sulfonyl)propyl)-5-(morpholinosulfonyl)benzamide] | 1310 | 9680 | – | –
CC(C)Oc1cccnc1C(C)(C)NC(=O)C(C)(C)S(=O)(=O)c1cccc(C(F)(F)F)c1 [Compound 147, N-(2-(3-isopropoxypyridin-2-yl)propan-2-yl)-2-methyl-2-((3-(trifluoromethyl)phenyl)sulfonyl)propanamide] | 1390 | 3530 | – | –
CC(C)(CNC(=O)c1ccc(C(F)(F)F)nc1)S(=O)(=O)c1cccc(C(F)(F)F)c1 [Compound 175, N-(2-methyl-2-((3-(trifluoromethyl)phenyl)sulfonyl)propyl)-6-(trifluoromethyl)nicotinamide] | 3190 | 5320 | – | –
O=C(NCc1ccc(S(=O)(=O)c2cccc(C(F)(F)F)c2)cc1)[C@@H]1CCCCN1 [Compound 79, (S)-N-(4-((3-(trifluoromethyl)phenyl)sulfonyl)benzyl)piperidine-2-carboxamide] | – | – | 1450 | 8440
O=C(CCC(F)(F)F)NCc1ccc(S(=O)(=O)c2cccc(C(F)(F)F)c2)cc1 [Compound 53, 4,4,4-trifluoro-N-(4-((3-(trifluoromethyl)phenyl)sulfonyl)benzyl)butanamide] | – | – | 340 | 4100
O=C(NCc1ccc(S(=O)(=O)c2cccc(C(F)(F)F)c2)cn1)c1cnc(C(F)(F)F)nc1 [Compound 97, 2-(trifluoromethyl)-N-((5-((3-(trifluoromethyl)phenyl)sulfonyl)pyridin-2-yl)methyl)pyrimidine-5-carboxamide] | – | – | 1930 | 4170
O=C(NCc1ccccc1S(=O)(=O)c1cccc(C(F)(F)F)c1)c1cn2cc(C(F)(F)F)ccc2n1 [Compound 51, 6-(trifluoromethyl)-N-(2-((3-(trifluoromethyl)phenyl)sulfonyl)benzyl)imidazo[1,2-a]pyridine-2-carboxamide] | – | – | 1230 | 1050
O=C1c2ccc(C(F)(F)F)nc2CN1Cc1ccccc1S(=O)(=O)c1cccc(C(F)(F)F)c1 [Compound 58, 2-(trifluoromethyl)-6-(2-((3-(trifluoromethyl)phenyl)sulfonyl)benzyl)-6,7-dihydro-5H-pyrrolo[3,4-b]pyridin-5-one] | – | – | 2680 | 1480
O=C(CCC(F)(F)F)NCc1cccc(S(=O)(=O)c2cccc(C(F)(F)F)c2)c1 [Compound 54, 4,4,4-trifluoro-N-(3-((3-(trifluoromethyl)phenyl)sulfonyl)benzyl)butanamide] | – | – | 400 | 6710
O=C1c2ccc(C(F)(F)F)nc2CN1Cc1ccc(S(=O)(=O)c2cccc(C(F)(F)F)c2)cc1 [Compound 56, 2-(trifluoromethyl)-6-(4-((3-(trifluoromethyl)phenyl)sulfonyl)benzyl)-6,7-dihydro-5H-pyrrolo[3,4-b]pyridin-5-one] | – | – | 310 | 2660
CC(C)(CNC(=O)c1ccnc(N2CCCC2)c1)S(=O)(=O)c1cccc(C(F)(F)F)c1 [Compound 161, N-(2-methyl-2-((3-(trifluoromethyl)phenyl)sulfonyl)propyl)-2-(pyrrolidin-1-yl)isonicotinamide] | 1120 | 8220 | – | –
O=C(NCc1ccc(S(=O)(=O)c2cccc(C(F)(F)F)c2)cc1)[C@H]1CCCCN1 [Compound 80, (R)-N-(4-((3-(trifluoromethyl)phenyl)sulfonyl)benzyl)piperidine-2-carboxamide] | – | – | 770 | 8700
O=C(NCc1ccc(S(=O)(=O)c2cccc(C(F)(F)F)c2)cn1)c1ccnc(C(F)(F)F)n1 [Compound 98, 2-(trifluoromethyl)-N-((5-((3-(trifluoromethyl)phenyl)sulfonyl)pyridin-2-yl)methyl)pyrimidine-4-carboxamide] | – | – | 1490 | 9160
